In PMC8615521, “Mitochondria-Mediated Apoptosis of HCC Cells Triggered by Knockdown of Glutamate Dehydrogenase 1: Perspective for Its Inhibition through Quercetin and Permethylated Anigopreissin A” (Biomedicines, 2021):

Assays:
[1] = target: T1, GDH1 from bovine liver (glutamate dehydrogenase 1) (Bos taurus, UniProt P00366); experiment: spectrophotometric NADH oxidation assay ([…] nm), reference inhibitor measured by the authors; type: biochemical
T1 construct: gene GLUD1; purified bovine liver GDH (Sigma Aldrich, Type II)

[2] = target: T1, GDH1 from bovine liver (glutamate dehydrogenase 1); experiment: spectrophotometric NADH oxidation assay ([…] nm), Lineweaver-Burk and secondary plots; type: biochemical
[3] = target: T2, hGDH1 (human glutamate dehydrogenase 1) (Homo sapiens, UniProt P00367); experiment: GDH activity in HepG2 cell extract (NADH, […] nm); type: cell-based; conditions: HepG2, read-out: % inhibition at 8 μM %
T2 construct: gene GLUD1; GDH activity in HepG2 cellular extract
T2 sequence (P00367 54-558): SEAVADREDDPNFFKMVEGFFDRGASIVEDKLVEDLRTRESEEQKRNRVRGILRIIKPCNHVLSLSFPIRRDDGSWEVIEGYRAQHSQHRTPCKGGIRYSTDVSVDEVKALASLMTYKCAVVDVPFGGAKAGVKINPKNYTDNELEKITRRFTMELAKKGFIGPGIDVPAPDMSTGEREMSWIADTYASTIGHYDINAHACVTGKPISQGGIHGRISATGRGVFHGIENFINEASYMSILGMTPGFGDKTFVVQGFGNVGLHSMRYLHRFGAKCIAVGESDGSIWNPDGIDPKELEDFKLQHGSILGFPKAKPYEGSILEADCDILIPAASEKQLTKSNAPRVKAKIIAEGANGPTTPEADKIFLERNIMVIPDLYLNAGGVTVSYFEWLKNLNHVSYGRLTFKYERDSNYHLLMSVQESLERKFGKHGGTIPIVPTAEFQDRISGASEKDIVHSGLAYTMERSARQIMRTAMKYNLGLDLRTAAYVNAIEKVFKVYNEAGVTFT

T1 sequence (P00366 58-558): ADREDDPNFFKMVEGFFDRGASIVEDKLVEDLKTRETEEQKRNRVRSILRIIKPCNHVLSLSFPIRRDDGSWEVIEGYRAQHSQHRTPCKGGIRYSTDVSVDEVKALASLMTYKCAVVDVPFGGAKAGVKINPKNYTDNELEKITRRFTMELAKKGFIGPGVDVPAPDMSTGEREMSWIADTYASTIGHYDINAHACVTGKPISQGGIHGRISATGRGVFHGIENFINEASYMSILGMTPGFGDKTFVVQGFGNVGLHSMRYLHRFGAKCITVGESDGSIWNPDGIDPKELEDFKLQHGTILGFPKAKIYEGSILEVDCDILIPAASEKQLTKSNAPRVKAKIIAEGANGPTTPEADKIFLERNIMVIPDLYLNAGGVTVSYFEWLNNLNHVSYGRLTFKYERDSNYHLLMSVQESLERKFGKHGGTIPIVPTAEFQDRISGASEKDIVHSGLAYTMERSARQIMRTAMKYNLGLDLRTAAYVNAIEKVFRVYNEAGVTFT

Compound | IC50 [1] | Ki [2] | inhibition at 8 µM [3]
O=C(O[C@@H]1Cc2c(O)cc(O)cc2O[C@@H]1c1cc(O)c(O)c(O)c1)c1cc(O)c(O)c(O)c1 [EGCG, Epigallocatechin gallate] | ~2 µM |  | 
Permethylated Anigopreissin A [PAA] |  | 10 µM | 
O=c1c(O)c(-c2ccc(O)c(O)c2)oc2cc(O)cc(O)c12 [quercetin] |  | 9.2 µM | ~56%
